Measured values: patent publication US20100331181A1, “Method for Protecting Cereals From Being Infected By Fungi” (BASF SE, priority 2008, published 2010)

Key:
[1] = system: Septoria tritici; test: Microtest (micro titer plate): activity against Septoria tritici; format: cell-based; settings: 7 days after inoculation
Source text: (§1) The active compounds were formulated separately as a stock solution having a concentration of 10000 ppm in dimethyl sulfoxide.
(§2) Epoxiconazole was used as commercial finished formulation and diluted with water to the stated concentration of the active compound.
B) 2. Activity against Septoria tritici
(§3) The stock solutions were mixed according to the ratio, pipetted onto a micro titer plate (MTP) and diluted with water to the stated concentrations. A spore suspension of Septoria tritici in an aqueous biomalt solution was then added. The plates were placed in a water vapor-saturated chamber at a temperature of 18° C. Using an absorption photometer, the MTPs were measured at 405 nm 7 days after the inoculation.
(§4) The measured parameters were compared to the growth of the active compound-free control variant (100%) and the fungus-free and active compound-free blank value to determine the relative growth in % of the pathogens in the respective active compounds. These percentages were converted into efficacies. An efficacy of 0 means that the growth level of the pathogens corresponds to that of the untreated control; an efficacy of 100 means that the pathogens were not growing.
(§5) The expected efficacies of active compound mixtures were determined using Colby's formula [R. S. Colby, “Calculating synergistic and antagonistic responses of herbicide combinations”, Weeds 15, 20-22 (1967)] and compared with the observed efficacies.

[2] = system: Rhizoctonia solani; test: Microtest (micro titer plate): activity against Rhizoctonia solani; format: cell-based; settings: 7 days after inoculation
Source text: as §1, §2
B) 1. Activity against Rhizoctonia solani
as §3, §4, §5

[3] = system: Puccinia recondita; test: Greenhouse: preventative control of brown rust on wheat; format: in vivo; settings: 0.25 ppm, wheat seedlings sprayed 1 day before inoculation, % of untreated control
Procedure: The spray solutions were prepared in several steps:
The stock solution were prepared: a mixture of acetone and/or dimethylsulfoxide and the wetting agent/emulsifier Wettol®, which is based on ethoxylated alkylphenoles, in a relation (volume) solvent-emulsifier of 99 to 1 was added to 25 mg of the compound to give a total of 10 ml.
Water was then added to total volume of 100 ml.
This stock solution was diluted with the described solvent-emulsifier-water mixture to the given concentration.
The product epoxiconazole was used as commercial finished formulation and diluted with water to the stated concentration of the active compound.
Preventative Control of Brown Rust on Wheat Caused by Puccinia recondite
The first two developed leaves of pot-grown wheat seedling were sprayed to run-off with an aqueous suspension, containing the concentration of active ingredient or their mixture as described below. The next day the plants were inoculated with spores of Puccinia recondita. To ensure the success the artificial inoculation, the plants were transferred to a humid chamber without light and a relative humidity of 95 to 99% and 20 to 22 °C. for 24 h. Then the trial plants were cultivated for 6 days in a greenhouse chamber at 22-26° C. and a relative humidity between 65 and 70%. The extent of fungal attack on the leaves was visually assessed as % diseased leaf area. […]
as §5
The visually determined percentages of infected leaf areas were converted into efficacies in % of the untreated control.
The efficacy (E) is calculated as follows using Abbot's formula: […]
The expected efficacies of active compound combinations were determined using Colby's formula (Colby, S. R. “Calculating synergistic and antagonistic responses of herbicide combinations”, Weeds, 15, pp. 20-22, 1967) and compared with the observed efficacies. […]

SMILES	Observed efficacy ([1]; 0.004 ppm) [%]	Observed efficacy ([2]; 0.004 ppm) [%]	Observed efficacy [3] [%]	Observed efficacy ([2]; 0.016 ppm) [%]	Observed efficacy ([1]; 0.016 ppm) [%]	Observed efficacy ([2]; 0.001 ppm) [%]
Cc1nn(C)c(F)c1C(=O)Nc1ccccc1C(C)CC(C)C (stereo not drawn) [Compound (II), N-[2-(1,3-dimethylbutyl)-phenyl]-1,3-dimethyl-5-fluor-1H-pyrazole-4-carboxamide]	0					
Fc1ccc([C@]2(Cn3cncn3)O[C@H]2c2ccccc2Cl)cc1 (racemic) [Epoxiconazole, epoxiconazole]		0				
CC1(C)CCC(Cc2ccc(Cl)cc2)C1(O)Cn1cncn1 (stereo not drawn) [Metconazole, metconazole]		26	33	62	19	
Cn1cc(C(=O)Nc2ccc(F)cc2-c2ccc(Cl)c(Cl)c2)c(C(F)F)n1 [Bixafen, N-(3′,4′-dichloro-5-fluorobiphenyl-2-yl)-3-(difluoromethyl)-1-methylpyrazole-4-carboxamide]		7	0			0
OC(Cc1ccccc1Cl)(Cn1nc[nH]c1=S)C1(Cl)CC1 (stereo not drawn) [Prothioconazole]			0	11	5	
